{
  "source": "patent US4996225A",
  "about": "“Tri-phenyl alkane derivatives and their oestrogenic, anti-oestrogenic and progestanic uses” (Farmos Group Ltd., priority 1982, dated 1991)",
  "key": {"[1]": {"tested_on": "MCF-7 cell line (human mammary adenocarcinoma)", "test": "anti-tumour effect in vitro, growth of MCF-7 cell line (bioluminescence assay, intracellular ATP)", "assay_type": "cell-based", "conditions": "read-out: Antitumour effect against MCF-7 cell line (IC50 = concentration of compound where 50% inhibition of cell growth could be seen)", "protocol": "The anti-tumour effect was studied in vitro as follows:\nThe amount of living cells after 4 h, 24 h and 48 h incubations were determined by bioluminescence assay (intracellular ATP determination).\ninhibition of cell growth could be seen."}, "[2]": {"tested_on": "DMBA-induced rat mammary adenocarcinomas", "test": "antitumour effect in vivo against DMBA-induced rat mammary adenocarcinoma", "conditions": "for growth / size of tumour (width×height): 30 mg/kg", "procedure": "(§1) The anti-tumour effect was investigated in vivo against DMBA-induced rat mammary adenocarcinomas, transplantable mammary and ovarial adenocarcinoma and transplantable prostatic squamous cell carcinoma by the following methods:\nMammary adenocarcinomas were induced by DMBA in 35-40 days old female rats. […] Tumour size and numbers of tumours were evaluated twice a week. Tumour sizes in the control group, treated with solvent, were compared with the test groups.\nThe size refers to the width×height of the tumour. The growth rate is a difference between sizes compared with that of the first day of the treatment."}, "[3]": {"tested_on": "mouse uterus sarcoma", "test": "antitumour effect against transplantable mouse uterus sarcoma", "assay_type": "in vivo", "conditions": "100 mg/kg, two weeks' treatment", "description": "The activity of the molecules against other tumours was studied by administering the molecules by stomach tube to animals implanted with transplantable uterus sarcoma (mice) or prostatic adenocarcinoma (rats).\nDaily or twice weekly administration schedules were employed. NMRI mice (about 20 g, females) and Fischer 344 rats (about 200 g, males) were used. Estramustine phosphate served as positive control.\n(§2) Transplantable rat mammary adenocarcinoma was developed by inoculating pieces of DMBA-induced carcinomas subcutaneously to healthy mature female rats. A tumour which expressed malignant growth was selected for further transplantations. Other transplantable tumours were inoculated subcutaneously as washed cell suspension (10^7 cells/animal)."}, "[4]": {"tested_on": "immature mouse uterus", "test": "oestrogenic effect, uterus weight of immature mice", "assay_type": "in vivo", "procedure": "(§3) The oestrogen-antiestrogen (progesterone) effect of the new compounds in vivo was determined as follows: (1) The oestrogenic properties were determined by administering the new compounds, suspended in sesame oil, subcutaneously to 21 days old immature mice on three consecutive days. The mice were killed on the fourth day and the uterus was weighed. […] The weight correlates with the oestrogenic effect of the compound tested. […] In this case, the ability of the molecules to inhibit oestrogen-induced uterus weight increase was also investigated."}, "[5]": {"tested_on": "estradiol induced weight increase in immature mouse uterus", "test": "antiestrogenic effect, inhibition of oestrogen-induced uterus weight increase in immature mice", "assay_type": "in vivo", "procedure": "as §3"}, "[6]": {"tested_on": "immature mouse uterus", "test": "progestanic effect, uterus weight of immature mice (alone or with medroxyprogesterone acetate)", "assay_type": "in vivo", "set-up": "reduction in the weight of a mouse uterus, given alone / reduction in the weight of uterus with medroxyprogesterone / reduction in the weights of mice uterus, given alone: concentration or dose not given beside the values", "conditions": "for progestanic effect (in words): immature mouse uterus; for effect with medroxyprogesterone (in words) / reduction in the weights of mice uterus with medroxyprogesterone, compared to control: with medroxyprogesterone 0.06 mg/kg"}, "[7]": {"tested_on": "rat ovarial carcinoma", "test": "antitumour effect against transplantable rat ovarial carcinoma", "assay_type": "in vivo", "conditions": "5 mg/kg, ten days' treatment", "description": "as §1, §2"}, "[8]": {"tested_on": "rat prostatic carcinoma", "test": "antitumour effect against transplantable prostatic carcinoma", "assay_type": "in vivo", "conditions": "1 mg/kg, 12 days' treatment", "description": "The anti-tumour effect was investigated in vivo against DMBA-induced rat mammary adenocarcinomas, transplantable mammary and ovarial adenocarcinoma and transplantable prostatic squamous cell carcinoma by the following methods: The activity of the molecules against other tumours was studied by administering the molecules by stomach tube to animals implanted with transplantable uterus sarcoma (mice) or prostatic adenocarcinoma (rats). Daily or twice weekly administration schedules were employed. NMRI mice (about 20 g, females) and Fischer 344 rats (about 200 g, males) were used. Estramustine phosphate served as positive control. Transplantable rat mammary adenocarcinoma was developed by inoculating pieces of DMBA-induced carcinomas subcutaneously to healthy mature female rats. A tumour which expressed malignant growth was selected for further transplantations. Other transplantable tumours were inoculated subcutaneously as washed cell suspension (10^7 cells/animal)."}, "[9]": {"molecular_target": "T1, oestrogen receptors (Rattus norvegicus, UniProt P06211)", "T1 construct": "rat uterus cytosol preparation; from tissue; host or cells: rat uterus cytosol", "T1 sequence (P06211 1-600)": "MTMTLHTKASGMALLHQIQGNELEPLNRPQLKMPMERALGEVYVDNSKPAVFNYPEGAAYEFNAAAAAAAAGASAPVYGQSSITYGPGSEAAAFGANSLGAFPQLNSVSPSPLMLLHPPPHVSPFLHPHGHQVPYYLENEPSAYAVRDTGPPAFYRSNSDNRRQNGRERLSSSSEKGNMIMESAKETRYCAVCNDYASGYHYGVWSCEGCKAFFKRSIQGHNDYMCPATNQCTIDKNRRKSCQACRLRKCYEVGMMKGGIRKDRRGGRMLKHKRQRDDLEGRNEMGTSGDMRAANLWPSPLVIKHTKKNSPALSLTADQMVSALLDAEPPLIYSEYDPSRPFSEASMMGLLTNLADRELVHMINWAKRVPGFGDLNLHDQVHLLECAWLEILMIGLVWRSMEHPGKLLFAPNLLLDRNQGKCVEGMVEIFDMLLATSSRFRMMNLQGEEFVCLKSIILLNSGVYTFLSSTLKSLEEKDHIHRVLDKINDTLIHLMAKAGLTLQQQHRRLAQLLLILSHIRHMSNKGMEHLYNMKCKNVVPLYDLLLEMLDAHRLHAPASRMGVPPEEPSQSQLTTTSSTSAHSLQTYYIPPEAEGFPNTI", "test": "affinity for oestrogen receptors, competition with 3H-17-β-estradiol in rat uterus cytosol (dextran-charcoal method)", "assay_type": "binding", "conditions": "read-out: Estrogen receptor affinity (concentration of compound where 50% competition (inhibition) with 3H-estradiol occurred)", "protocol": "The affinity of the new compounds for oestrogen receptors was determined by the ability to compete with ^3 H-labelled 17-β-estradiol in rat uterus cytosol preparation. After incubation, receptor-bound and receptor-unbound ligands were separated by a known dextrancharcoal method."}},
  "note": "“Also recorded” adds a separate entry of the source.",
  "data": [
    {"smiles": "CN(C)CCOc1ccc(/C(=C(/CCCl)c2ccccc2)c2ccccc2)cc1", "note": "[Compound 7, 4-chloro-1,2-diphenyl-1-[4-[2-(N,N-dimethylamino)ethoxy]phenyl]-1-butene]", "values": [
      {"measurement": "IC50", "setting": "[1]", "result": "1000 to 5000", "unit": "nM"},
      {"measurement": "growth", "setting": "[2]; day 1 of treatment", "result": 0},
      {"measurement": "size of tumour (width×height)", "setting": "[2]; day 1 of treatment", "result": 1.5188},
      {"measurement": "growth", "setting": "[2]; day 3 of treatment", "result": 0.1551},
      {"measurement": "size of tumour (width×height)", "setting": "[2]; day 3 of treatment", "result": 1.6739},
      {"measurement": "growth", "setting": "[2]; day 7 of treatment", "result": -0.2118},
      {"measurement": "size of tumour (width×height)", "setting": "[2]; day 7 of treatment", "result": 1.3070},
      {"measurement": "growth", "setting": "[2]; day 9 of treatment", "result": -0.4714},
      {"measurement": "size of tumour (width×height)", "setting": "[2]; day 9 of treatment", "result": 1.0474},
      {"measurement": "growth", "setting": "[2]; day 14 of treatment", "result": -0.5392},
      {"measurement": "size of tumour (width×height)", "setting": "[2]; day 14 of treatment", "result": 0.1179},
      {"measurement": "growth", "setting": "[2]; day 17 of treatment", "result": -0.5752},
      {"measurement": "size of tumour (width×height)", "setting": "[2]; day 17 of treatment", "result": 0.0820},
      {"measurement": "growth", "setting": "[2]; day 21 of treatment", "result": -0.5851},
      {"measurement": "size of tumour (width×height)", "setting": "[2]; day 21 of treatment", "result": 0.0721},
      {"measurement": "growth", "setting": "[2]; day 25 of treatment", "result": -0.5682},
      {"measurement": "size of tumour (width×height)", "setting": "[2]; day 25 of treatment", "result": 0.0891},
      {"measurement": "growth", "setting": "[2]; day 28 of treatment", "result": -0.5640},
      {"measurement": "size of tumour (width×height)", "setting": "[2]; day 28 of treatment", "result": 0.09316},
      {"measurement": "growth", "setting": "[2]; day 35 of treatment", "result": -0.5379},
      {"measurement": "size of tumour (width×height)", "setting": "[2]; day 35 of treatment", "result": 0.1193},
      {"measurement": "growth of the tumours (in words)", "setting": "[2]; highest dose used (30 mg/kg)", "result": "the growth of the tumours was found to stop"},
      {"measurement": "dose range at which antitumour effect was found", "setting": "[2]; rat, in vivo", "result": "1.0 to 30", "unit": "mg/kg"},
      {"measurement": "size of uterus sarcoma smaller than that of control", "setting": "[3]", "result": 30, "unit": "%"},
      {"measurement": "estrogenic effect: less than that of estradiol 0.05 mg/kg", "setting": "[4]; 5 mg/kg", "result": "about 50%"},
      {"measurement": "effect given alone: estrogenic (in words)", "setting": "[4]; given alone", "result": "estrogenic"},
      {"measurement": "estrogenic effect (in words)", "setting": "[4]; immature mice, s.c., three days", "result": "could be seen only at the higher concentrations investigated; also recorded: possessing antiestrogenic and estrogenic properties"},
      {"measurement": "inhibition of estradiol induced effect in mouse uterus", "setting": "[5]; 0.5 mg/kg", "result": 27, "unit": "%"},
      {"measurement": "anti-estrogenic effect (in words)", "setting": "[5]; immature mouse uterus", "result": "possessed anti-estrogenic effects; also recorded: possessing antiestrogenic and estrogenic properties"},
      {"measurement": "effect with estradiol (in words)", "setting": "[5]; with estradiol 0.05 mg/kg", "result": "anti-"},
      {"measurement": "reduction in the weights of mice uterus, with estradiol", "setting": "[5]; with estradiol 0.05 mg/kg", "result": 27, "unit": "%"},
      {"measurement": "effect given alone: progestanic (in words)", "setting": "[6]; given alone", "result": "progestanic"},
      {"measurement": "progestanic effect (in words)", "setting": "[6]", "result": "found to be progestanic"},
      {"measurement": "interaction with medroxyprogesterone (in words)", "setting": "[6]", "result": "slight inhibition of medroxyprogesterone at the lowest dose studied"},
      {"measurement": "effect with medroxyprogesterone (in words)", "setting": "[6]", "result": "weak"},
      {"measurement": "reduction in the weights of mice uterus with medroxyprogesterone, compared to control", "setting": "[6]", "result": 14, "unit": "%"},
      {"measurement": "size of rat ovarial carcinoma smaller compared with control", "setting": "[7]", "result": 20, "unit": "%"}
    ]},
    {"smiles": "Oc1ccc([C@@]2(c3ccccc3)OCC[C@@H]2c2ccccc2)cc1", "note": "(relative stereo) [Compound 2, 2,3-diphenyl-2-(4-hydroxyphenyl)tetrahydrofuran]", "values": [
      {"measurement": "IC50", "setting": "[1]", "result": "5000 to 10000", "unit": "nM"},
      {"measurement": "size of prostatic tumour smaller than that of control", "setting": "[8]", "result": 29, "unit": "%"},
      {"measurement": "antitumour effect against DMBA-induced mammary cancer (in words)", "setting": "[2]; compared with compound 7", "result": "Antitumour effect less than that of compound 7"},
      {"measurement": "IC50", "setting": "[9]", "result": "100 to 1000", "unit": "nM"},
      {"measurement": "estrogenic effect of their own (in words)", "setting": "[4]; up to 5 mg/kg", "result": "no estrogenic effect of their own; also recorded: no antiestrogenic or estrogenic effect of its own"},
      {"measurement": "antiestrogenic effect of its own (in words)", "setting": "[5]; up to 5 mg/kg", "result": "no antiestrogenic or estrogenic effect of its own"},
      {"measurement": "effect with estradiol (in words)", "setting": "[5]; with estradiol 0.05 mg/kg", "result": "no synergism"},
      {"measurement": "decrease of weight of mouse uterus", "setting": "[6]; 0.05 mg/kg", "result": 50, "unit": "%"},
      {"measurement": "effect given alone: progestanic (in words)", "setting": "[6]; given alone", "result": "progestanic"},
      {"measurement": "reduction in the weights of mice uterus, given alone", "setting": "[6]; given alone, Table 2A", "result": 50, "unit": "%"},
      {"measurement": "progestanic effect (in words)", "setting": "[6]", "result": "could purely be considered to be due to its progestanic effect"},
      {"measurement": "interaction with medroxyprogesterone (in words)", "setting": "[6]", "result": "synergistic effect with medroxyprogesterone"},
      {"measurement": "effect with medroxyprogesterone (in words)", "setting": "[6]", "result": "synergistic"},
      {"measurement": "reduction in the weights of mice uterus with medroxyprogesterone, compared to control", "setting": "[6]", "result": 53, "unit": "%"}
    ]}
  ]
}
